The source of these data is patent publication US20230094146A1, “DEUTERATED THIENOPYRIDINE COMPOUND” (MEDSHINE DISCOVERY INC., priority 2020, published 2023).

Counter-ions that a name gives are not always drawn.

A short description of data set [1]: Metabolic stability of liver microsomes in vitro. The format is in vitro ADME, cynomolgus monkey. Particulars: Monkey liver microsomes 0.5 mg/mL, compound 1 μM. As to the method:
(§1) SD rat, mouse, beagle, cynomolgus monkey and human microsomes were purchased from Corning, Xenotech or BioIVT and stored in a −80° C. freezer.
(§2) 1.2 Nicotinamide adenine dinucleotide phosphate, reduced (NADPH), supplier: Chem-impex international, catalog number: 00616.
(§3) 1.3 Control compounds: testosterone, diclofenac, propafenone.
(§4) Stock solution: 10 mM DMSO solution.
(§5) Working concentration preparation: 100% acetonitrile diluted to 100 μM (organic phase content: 99% ACN, 1% DMSO).
(§6) Prepare two 96-well incubation plates, which were named T60 incubation plate and NCF60 incubation plate, respectively.
(§7) 445 μL of microsomal working solution (liver microsomal protein concentration of 0.56 mg/mL) was added to the T60 incubation plate and NCF60 incubation plate, respectively, and then the above incubation plates were preincubated in a 37° C. water bath for about 10 minutes.
(§8) After the preincubation, 5 μL of test substance or working solution of control compound were added to the T60 incubation plate and NCF60 incubation plate, respectively, and mixed well. The reaction was initiated by adding 50 μL of potassium phosphate buffer to each well of the NCF60 incubation plate; 180 μL of termination solution (acetonitrile solution containing 200 ng/mL tolbutamide and 200 ng/mL labetalol) and 6 μL of NADPH regeneration system working solution were added to the TO termination plate, and 54 μL of sample was removed from the T60 incubation plate to the TO termination plate (TO sample generation). The reaction was initiated by adding 44 μL NADPH regeneration system working solution to each well of the T60 incubation plate. 54 μL of microsomal working solution, 6 μL of NADPH regeneration system working solution and 180 μL of termination solution were added only to the blank plate. Therefore, in the samples of the test or control compounds, the final reaction concentration of compound, testosterone, diclofenac and propafenone was 1 μM, the concentration of liver microsomes was 0.5 mg/mL, and the final concentration of DMSO and acetonitrile in the reaction system were 0.01% (v/v) and 0.99% (v/v), respectively.
(§9) After incubation for an appropriate time (e.g. 5, 10, 20, 30 and 60 minutes), 180 μL of termination solution (acetonitrile solution containing 200 ng/mL tolbutamide and 200 ng/mL labetalol) was added to the sample well of each termination plate, respectively, and then 60 μL of sample was removed from the T60 incubation plate to terminate the reaction.
(§10) All sample plates were shaken well and centrifuged at 3220×g for 20 minutes, then 80 μL of supernatant per well was diluted into 240 μL of purified water for liquid chromatography tandem mass spectrometry analysis.
(§11) All samples were injected for analysis.
Background: Liver microsomes are vesicles of endoplasmic reticulum, rich in cytochrome P450 enzymes.

Data set [2] in a line: Metabolic stability of liver microsomes in vitro. The format is in vitro ADME, beagle. Particulars: Dog liver microsomes 0.5 mg/mL, compound 1 μM; for CLint scaled at 1 μM: beagle. As to the method: as §1, §2, §3, §4, §5, §6, §7, §8, §9, §10, §11
For another data set, the target named is T1, VEGFR3 (Homo sapiens, UniProt P35916).
T1 construct: purchased Reaction Biology Corp
Description: 33P isotope-labeled kinase activity assay (Reaction Biology Corp). The format is biochemical. Particulars: 33P-ATP at Km concentration. As to the method: (§12) The ^33P isotope-labeled kinase activity assay (Reaction Biology Corp) was used to determine the IC50 value to evaluate the inhibitory ability of the test compounds to Axl, c-Kit, Mer, DDR2, VEGFR1, VEGFR2, VEGFR3, TrkA, and FLT3.
(§13) Buffer conditions: 20 mM hydroxyethylpiperazine […] (Hepes) (pH 7.5), 10 mM MgCl2, 1 mM ethylene glycol bisaminoethyl ether tetraacetic acid (EGTA), 0.02% polyoxyethylene dodecane Ether (Brij35), 0.02 mg/ml BSA, 0.1 mM Na3VO4, 2 mM dithiothreitol (DTT), 1% DMSO.
(§14) Compound Treatment: Test compounds were dissolved in 100% DMSO and diluted serially to a specific concentration with DMSO by Integra Viaflo Assist.
(§15) Test procedure: The substrate was dissolved in freshly prepared buffer, the tested kinase was added and gently mixed well. The DMSO solution containing the test compound was added to the above well mixed reaction solution using acoustic technique (Echo 550) and incubated at room temperature for […]. The compound concentrations in the reaction solution were 3 μM, 1 μM, 0.333 μM, 0.111 μM, 0.0370 μM, 0.0123 μM, 4.12 nM, 1.37 nM, 0.457 nM, 0.152 nM. After 15 minutes of incubation, ^33P-ATP (activity 0.01 μCi/μL, Km concentration) was added to start the reaction. The reaction was carried out at room temperature for 120 minutes, then radioactivity was detected by filter binding method. The kinase activity data were expressed by comparison between the kinase activity containing the test compound and the kinase activity of the blank group (containing DMSO only), and the IC50 values were obtained by curve fitting using Prism4 software (GraphPad), and the experimental results are shown in Table 1.

For a further data set, the target named is T2, DDR2 (Homo sapiens, UniProt Q16832).
T2 construct: purchased Reaction Biology Corp
T2 sequence (Q16832 22-855): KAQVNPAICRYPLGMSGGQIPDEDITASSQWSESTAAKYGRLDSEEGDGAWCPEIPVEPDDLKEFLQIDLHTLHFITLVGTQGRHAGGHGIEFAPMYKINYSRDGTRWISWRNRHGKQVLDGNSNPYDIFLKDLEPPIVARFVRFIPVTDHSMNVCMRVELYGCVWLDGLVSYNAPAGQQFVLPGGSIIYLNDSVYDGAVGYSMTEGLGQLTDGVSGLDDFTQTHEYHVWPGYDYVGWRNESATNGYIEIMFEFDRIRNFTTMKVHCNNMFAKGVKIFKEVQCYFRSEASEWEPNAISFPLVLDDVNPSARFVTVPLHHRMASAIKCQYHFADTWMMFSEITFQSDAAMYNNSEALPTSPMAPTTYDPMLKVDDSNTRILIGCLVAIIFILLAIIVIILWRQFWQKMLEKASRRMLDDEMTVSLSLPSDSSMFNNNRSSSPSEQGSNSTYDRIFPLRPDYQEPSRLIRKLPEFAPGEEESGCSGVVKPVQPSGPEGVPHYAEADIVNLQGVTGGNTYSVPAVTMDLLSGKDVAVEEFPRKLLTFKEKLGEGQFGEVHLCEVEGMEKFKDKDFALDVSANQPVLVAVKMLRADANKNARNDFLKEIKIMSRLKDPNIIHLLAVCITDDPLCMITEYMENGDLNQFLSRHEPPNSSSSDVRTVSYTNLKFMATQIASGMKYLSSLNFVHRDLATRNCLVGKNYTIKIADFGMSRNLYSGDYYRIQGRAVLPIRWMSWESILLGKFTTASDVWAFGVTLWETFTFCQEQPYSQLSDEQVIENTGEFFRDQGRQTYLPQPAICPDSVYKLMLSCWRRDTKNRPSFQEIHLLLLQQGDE
The data set is described as above. As to conditions: 33P-ATP at Km concentration. It is filed as biochemical. The procedure: as §12, §13, §14, §15

A further data set concerns the target T3, VEGFR1 (Homo sapiens, UniProt P17948).
T3 construct: purchased Reaction Biology Corp
Described as above. It is filed as biochemical. Particulars: 33P-ATP at Km concentration. As to the method: as §12, §13, §14, §15

The next data set concerns the target T4, VEGFR2 (Homo sapiens, UniProt P35968).
T4 construct: purchased Reaction Biology Corp
Described as above. It is filed as biochemical. Particulars: 33P-ATP at Km concentration. As to the method:
as §12, §13, §14, §15

The nature of data set [3]: Metabolic stability of liver microsomes in vitro. The format is in vitro ADME, SD rat. Particulars: Rat liver microsomes 0.5 mg/mL, compound 1 μM; for CLint scaled at 1 μM: Sprague-Dawley. As to the method: as §1, §2, §3, §4, §5, §6, §7, §8, §9, §10, §11
A short description of data set [4]: Metabolic stability of liver microsomes in vitro. As to conditions: compound 1 μM. The format is in vitro ADME. The procedure:
as §1, §2, §3, §4, §5, §6, §7, §8, §9, §10, §11

The nature of data set [5]: Pharmacokinetic evaluation in rats after oral administration. Particulars: Sprague-Dawley, plasma, 5 mg/kg, SD rat (male), 5 mpk. The format is in vivo. The procedure:
Testing the pharmacokinetic properties of the compounds of the present disclosure in rats.
The pharmacokinetic characteristics of the compounds in rodents after oral administration were tested by standard protocols. In the experiment, the candidate compounds were formulated into a clarified solution and given to rats for oral administration. The vehicle was 10% NMP/40% PEG400/[…]. Whole blood samples were collected within 24 hours (0.0833, 0.25, 0.5, 1, 2, 4, 6, 8, 24 h), and all blood samples were added to the plastic centrifuge tubes pre-labeled with 0.5 M K2-EDTA anticoagulant.

[6] abbreviates: Human liver microsomes 0.5 mg/mL.
[7] abbreviates: Mouse liver microsomes 0.5 mg/mL.

T4 sequence (P35968 20-1356): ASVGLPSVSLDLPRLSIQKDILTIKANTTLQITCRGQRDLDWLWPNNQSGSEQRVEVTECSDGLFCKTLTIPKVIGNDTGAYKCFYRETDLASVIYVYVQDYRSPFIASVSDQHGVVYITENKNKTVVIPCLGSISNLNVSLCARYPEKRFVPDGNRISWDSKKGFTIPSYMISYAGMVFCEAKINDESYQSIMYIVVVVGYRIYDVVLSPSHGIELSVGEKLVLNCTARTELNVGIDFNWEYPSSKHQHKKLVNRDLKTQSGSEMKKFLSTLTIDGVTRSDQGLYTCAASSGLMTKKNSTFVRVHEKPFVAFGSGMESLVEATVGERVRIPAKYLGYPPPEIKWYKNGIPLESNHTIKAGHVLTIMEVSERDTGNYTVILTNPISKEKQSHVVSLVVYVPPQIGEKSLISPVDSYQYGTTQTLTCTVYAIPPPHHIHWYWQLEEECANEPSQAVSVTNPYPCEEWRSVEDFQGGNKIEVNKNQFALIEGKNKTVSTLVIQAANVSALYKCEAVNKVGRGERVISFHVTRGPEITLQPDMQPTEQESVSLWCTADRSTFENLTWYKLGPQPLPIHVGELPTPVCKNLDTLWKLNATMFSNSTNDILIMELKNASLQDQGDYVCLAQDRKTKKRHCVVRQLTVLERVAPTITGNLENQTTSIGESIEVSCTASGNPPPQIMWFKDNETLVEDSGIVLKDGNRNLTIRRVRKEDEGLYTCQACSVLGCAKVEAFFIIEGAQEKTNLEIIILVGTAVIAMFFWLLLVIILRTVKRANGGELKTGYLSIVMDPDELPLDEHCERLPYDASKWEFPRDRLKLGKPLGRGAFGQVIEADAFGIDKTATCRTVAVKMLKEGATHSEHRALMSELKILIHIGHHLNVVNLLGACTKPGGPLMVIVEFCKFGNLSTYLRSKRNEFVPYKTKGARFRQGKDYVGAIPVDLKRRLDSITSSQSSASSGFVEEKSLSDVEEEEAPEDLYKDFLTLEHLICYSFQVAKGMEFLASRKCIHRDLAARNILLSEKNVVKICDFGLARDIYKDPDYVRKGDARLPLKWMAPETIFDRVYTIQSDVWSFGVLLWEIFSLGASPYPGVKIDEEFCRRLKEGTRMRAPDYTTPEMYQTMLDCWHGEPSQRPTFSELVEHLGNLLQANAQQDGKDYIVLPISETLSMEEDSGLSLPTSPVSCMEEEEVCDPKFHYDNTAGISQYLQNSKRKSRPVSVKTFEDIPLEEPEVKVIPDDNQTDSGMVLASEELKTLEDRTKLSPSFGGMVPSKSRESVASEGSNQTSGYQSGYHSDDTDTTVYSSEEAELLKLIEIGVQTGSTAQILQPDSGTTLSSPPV
T1 sequence (P35916 25-1363): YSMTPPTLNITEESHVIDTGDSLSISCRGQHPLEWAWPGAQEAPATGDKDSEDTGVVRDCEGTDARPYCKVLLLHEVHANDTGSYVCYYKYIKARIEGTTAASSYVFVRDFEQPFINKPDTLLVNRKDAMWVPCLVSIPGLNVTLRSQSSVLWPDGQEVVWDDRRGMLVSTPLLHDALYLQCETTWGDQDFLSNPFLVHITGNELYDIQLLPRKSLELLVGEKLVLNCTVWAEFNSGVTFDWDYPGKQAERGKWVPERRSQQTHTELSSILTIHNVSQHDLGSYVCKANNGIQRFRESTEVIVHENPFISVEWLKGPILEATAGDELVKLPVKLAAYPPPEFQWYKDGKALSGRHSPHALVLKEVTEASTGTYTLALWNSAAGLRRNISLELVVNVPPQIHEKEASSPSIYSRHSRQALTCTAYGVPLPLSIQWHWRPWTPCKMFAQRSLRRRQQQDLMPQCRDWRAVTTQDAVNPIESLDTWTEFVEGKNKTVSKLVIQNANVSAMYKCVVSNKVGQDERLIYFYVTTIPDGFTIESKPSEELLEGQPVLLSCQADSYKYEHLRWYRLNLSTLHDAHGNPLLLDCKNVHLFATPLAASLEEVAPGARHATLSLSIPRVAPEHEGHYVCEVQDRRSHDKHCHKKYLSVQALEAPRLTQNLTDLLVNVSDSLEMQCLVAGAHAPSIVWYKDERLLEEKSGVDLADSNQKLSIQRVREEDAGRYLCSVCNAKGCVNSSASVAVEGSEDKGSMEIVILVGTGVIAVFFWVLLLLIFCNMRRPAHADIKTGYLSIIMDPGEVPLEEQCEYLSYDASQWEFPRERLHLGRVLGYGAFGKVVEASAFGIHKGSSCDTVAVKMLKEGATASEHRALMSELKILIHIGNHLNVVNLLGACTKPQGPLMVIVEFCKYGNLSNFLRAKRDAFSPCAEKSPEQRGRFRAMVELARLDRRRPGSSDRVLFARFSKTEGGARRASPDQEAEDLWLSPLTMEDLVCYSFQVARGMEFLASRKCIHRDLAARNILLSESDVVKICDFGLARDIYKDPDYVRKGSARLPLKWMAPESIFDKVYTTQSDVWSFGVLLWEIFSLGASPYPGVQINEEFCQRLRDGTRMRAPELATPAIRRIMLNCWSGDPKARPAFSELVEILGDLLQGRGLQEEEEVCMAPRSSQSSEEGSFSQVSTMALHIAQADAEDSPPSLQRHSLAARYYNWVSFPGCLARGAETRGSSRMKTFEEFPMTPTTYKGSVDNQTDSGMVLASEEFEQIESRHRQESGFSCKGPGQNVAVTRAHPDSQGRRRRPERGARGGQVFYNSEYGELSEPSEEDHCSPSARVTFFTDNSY
T3 sequence (P17948 27-1338): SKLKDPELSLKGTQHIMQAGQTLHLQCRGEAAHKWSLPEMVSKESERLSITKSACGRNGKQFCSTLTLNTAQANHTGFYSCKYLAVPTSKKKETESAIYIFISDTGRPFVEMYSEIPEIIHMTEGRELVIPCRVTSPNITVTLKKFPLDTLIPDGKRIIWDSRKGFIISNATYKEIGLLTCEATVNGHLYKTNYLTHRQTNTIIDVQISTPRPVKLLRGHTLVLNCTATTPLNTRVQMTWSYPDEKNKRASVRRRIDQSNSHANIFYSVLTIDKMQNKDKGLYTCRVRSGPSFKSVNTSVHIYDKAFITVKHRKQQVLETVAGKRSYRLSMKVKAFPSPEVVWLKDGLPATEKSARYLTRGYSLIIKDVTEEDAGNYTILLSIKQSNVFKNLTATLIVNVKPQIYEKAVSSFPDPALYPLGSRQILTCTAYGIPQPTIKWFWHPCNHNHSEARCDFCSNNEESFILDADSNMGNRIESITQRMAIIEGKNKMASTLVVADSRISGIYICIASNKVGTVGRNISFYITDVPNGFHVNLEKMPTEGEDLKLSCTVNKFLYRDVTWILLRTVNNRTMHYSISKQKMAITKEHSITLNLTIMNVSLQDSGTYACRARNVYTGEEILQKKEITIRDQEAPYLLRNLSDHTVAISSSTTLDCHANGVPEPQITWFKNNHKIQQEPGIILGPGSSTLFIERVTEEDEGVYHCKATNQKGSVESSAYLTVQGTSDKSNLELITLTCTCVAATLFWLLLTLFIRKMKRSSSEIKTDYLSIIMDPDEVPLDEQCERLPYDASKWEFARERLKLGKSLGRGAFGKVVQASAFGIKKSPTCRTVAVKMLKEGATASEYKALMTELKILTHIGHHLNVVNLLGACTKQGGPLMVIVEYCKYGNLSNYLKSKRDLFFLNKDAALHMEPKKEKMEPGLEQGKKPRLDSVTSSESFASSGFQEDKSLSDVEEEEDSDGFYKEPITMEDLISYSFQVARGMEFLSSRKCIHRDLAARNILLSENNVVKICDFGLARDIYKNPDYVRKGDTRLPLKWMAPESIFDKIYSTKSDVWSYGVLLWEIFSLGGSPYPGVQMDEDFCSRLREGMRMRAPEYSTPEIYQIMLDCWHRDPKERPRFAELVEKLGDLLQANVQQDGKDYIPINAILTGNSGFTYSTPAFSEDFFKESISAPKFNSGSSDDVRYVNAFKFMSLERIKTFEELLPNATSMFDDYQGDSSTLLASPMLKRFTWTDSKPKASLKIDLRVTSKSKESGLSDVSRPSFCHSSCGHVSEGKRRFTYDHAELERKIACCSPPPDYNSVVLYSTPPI

For the compound `[2H]C([2H])([2H])OC([2H])([2H])CNCc1ccc(-c2cc3nccc(Oc4ccc(NC(=O)C5(C(=O)Nc6ccc(F)cc6)CC5)cc4F)c3s2)nc1` [Hydrochloride of 002], the CLint scaled – broadly, the capacity of the preparation to metabolise the compound, expressed as a volume cleared per time – at 1 μM in [1] is 19.7 mL/min/kg; in [2] it was 139 mL/min/kg; in [3] it was 78.1 mL/min/kg; in data set [4] (setting [6]) it was below 8.6 mL/min/kg; in data set [4] (setting [7]), 301 mL/min/kg. Also, the 60 min remaining in data set [1] is 59.7%; in [2] it was 5.4%; in [3], 26.2%; in data set [4] (setting [6]) it was 96.4%; in data set [4] (setting [7]), 11.3%. Also, the IC50 (as a rule, the midpoint of a concentration-inhibition curve) against VEGFR3 is 2.13 nM; at DDR2 it was 1.14 nM; against VEGFR1, 7.16 nM; against VEGFR2 it was 2.75 nM.
In the case of `COCCNCc1ccc(-c2cc3nccc(Oc4ccc(NC(=O)C5(C(=O)Nc6ccc(F)cc6)CC5)cc4F)c3s2)nc1` [Sitravatinib, reference compound], in data set [5], the AUC(0-t) (as a rule, exposure summed from dosing to a finite time, without extrapolation to infinity) was determined as 4.79 µM·h. For the same compound, in data set [5], the Cmax (usually the peak of the concentration-time curve) stood at 801 nM. Besides, the Tmax – broadly, the time at which the peak concentration occurs – in data set [5] is 3 h. Also, the CLint scaled at 1 μM is 42.8 mL/min/kg in data set [1]; 172 mL/min/kg in [2]; 192 mL/min/kg in data set [3]; 10.6 mL/min/kg in data set [4] (setting [6]); 460 mL/min/kg in data set [4] (setting [7]). For the same compound, the 60 min remaining turned out to be 38.5% in data set [1]; 2.6% in data set [2]; 4.2% in [3]; 71.5% in [4] (setting [6]); 3.30% in [4] (setting [7]).
In [5], `[2H]C([2H])([2H])OCCNCc1ccc(-c2cc3nccc(Oc4ccc(NC(=O)C5(C(=O)Nc6ccc(F)cc6)CC5)cc4F)c3s2)nc1` [Trifluoroacetate of 001] returned an area under the curve AUC(0-t) of 6.65 µM·h. The same compound returned a Cmax in [5] of 930 nM. For the same compound, in data set [5], the Tmax is 1.25 h. Moreover, the CLint scaled at 1 μM in [1] was 22.5 mL/min/kg; in data set [2], 144 mL/min/kg; in data set [3], 71.3 mL/min/kg; in data set [4] (setting [6]) it was below 8.6 mL/min/kg; in data set [4] (setting [7]) it was 321 mL/min/kg. In addition, the 60 min remaining in data set [1] was found to be 55.9%; in [2], 4.9%; in data set [3] it was 28.6%; in [4] (setting [6]), 87.1%; in data set [4] (setting [7]), 9.5%. Moreover, the IC50 on VEGFR3 was found to be 2.82 nM; against DDR2, 0.79 nM; against VEGFR1, 10.5 nM; against VEGFR2 it was 2.16 nM.
